Counter-ions that a name gives are not always drawn.

Here are results for 29 compounds from patent US9447100B2, “Substituted pyrazolo[1,5-A] pyrimidines as calcium receptor modulating agents” (Takeda Pharmaceutical Company Limited, priority 2002, dated 2016).

As for `CCC(CC)(NC(=O)c1c(C)nn2c1N[C@@H](c1ccccc1)CC2(C)C)c1ccc(I)cc1` (as salt: HCl) [Example 1073, (5R)-N-(1-ethyl-1-(4-iodophenyl)propyl)-2,7,7-trimethyl-5-phenyl-4,5,6,7-tetrahydropyrazolo[1,5-a]pyrimidine-3-carboxamide], the melting point lay in the range of 179 to 180 °C.

In turn, `CCC(CC)(NC(=O)c1cnn2c1NC(c1ccccc1)C1CCCCC12)c1ccc(C(F)(F)F)cc1` (centres unmarked) [Example 201, N-(1-ethyl-1-(4-(trifluoromethyl)phenyl)propyl)-5-phenyl-4,5,5a,6,7,8,9,9a-octahydropyrazolo[1,5-a]quinazoline-3-carboxamide] registered a melting point of 213 to 214 °C.

The compound `CCC(CC)(NC(=O)c1cnn2c1N(C)C(c1ccccc1)CC2(C)C)c1ccc(C)cc1` (centres unmarked) (as salt: HCl) [Example 827, N-(1-ethyl-1-(4-methylphenyl)propyl)-4,7,7-trimethyl-5-phenyl-4,5,6,7-tetrahydropyrazolo[1,5-a]pyrimidine-3-carboxamide] registered a melting point of 120 to 121 °C.

`CCC(CC)(NC(=O)c1cnn2c1NC(c1ccccc1)CC2(C)C)c1ccc(F)c(F)c1` (centres unmarked) [Example 589, N-(1-(3,4-difluorophenyl)-1-ethylpropyl)-7,7-dimethyl-5-phenyl-4,5,6,7-tetrahydropyrazolo[1,5-a]pyrimidine-3-carboxamide] returned a melting point of 171 to 172 °C.

For `CCC(CC)(NC(=O)c1cnn2c1NC(c1ccccc1)CC2(C)C)c1ccc(-c2ccc(OC)nc2)cc1` (centres unmarked) [Example 677, N-(1-ethyl-1-(4-(6-methoxy-3-pyridinyl)phenyl)propyl)-7,7-dimethyl-5-phenyl-4,5,6,7-tetrahydropyrazolo[1,5-a]pyrimidine-3-carboxamide], the melting point was in the range of 172 to 173 °C.

On to `O=C(O)c1cnn2c1NC(c1ccc(Cl)cc1)CC2C(F)(F)F` (centres unmarked) [Example 26, 5-(4-chlorophenyl)-7-(trifluoromethyl)-4,5,6,7-tetrahydropyrazolo[1,5-a]pyrimidine-3-carboxylic acid], for which the melting point fell in the range of 186 to 187 °C.

`CC1(C)CC(c2ccccc2)Nc2c(C(=O)NC3(C(N)=O)CCCCC3)cnn21` (centres unmarked) [Example 626, N-(1-(aminocarbonyl)cyclohexyl)-7,7-dimethyl-5-phenyl-4,5,6,7-tetrahydropyrazolo[1,5-a]pyrimidine-3-carboxamide]: the melting point lay in the range of 140 to 141 °C.

As to `Cc1ccc(C2CC(C)(C)n3nc(C)c(C(=O)O)c3N2)cc1` (centres unmarked) [Example 949, 2,7,7-trimethyl-5-(4-methylphenyl)-4,5,6,7-tetrahydropyrazolo[1,5-a]pyrimidine-3-carboxylic acid], the melting point is 181 to 182 °C.

In the case of `CCOC(=O)c1cnn2c1NC(c1ccco1)CC2C(F)(F)F` (centres unmarked) [Example 14, ethyl 5-(2-furyl)-7-(trifluoromethyl)-4,5,6,7-tetrahydropyrazolo[1,5-a]pyrimidine-3-carboxylate], the melting point was determined as 86 °C.

Turning to `CCC(CC)(NC(=O)c1cnn2c1NC(c1ccccc1)CC2(C)C)c1ccc(-c2ccco2)cc1` (centres unmarked) [Example 584, N-(1-ethyl-1-(4-(2-furyl)phenyl)propyl)-7,7-dimethyl-5-phenyl-4,5,6,7-tetrahydropyrazolo[1,5-a]pyrimidine-3-carboxamide], the melting point fell in the range of 167 to 168 °C.

`CCCCOC(=O)CCc1ccc(C(CC)(CC)NC(=O)c2cnn3c2NC(c2ccccc2)CC3(C)C)cc1` (centres unmarked) (as salt: HCl) [Example 815, butyl 3-(4-(1-(((7,7-dimethyl-5-phenyl-4,5,6,7-tetrahydropyrazolo[1,5-a]pyrimidin-3-yl)carbonyl)amino)-1-ethyl-propyl)phenyl)propanoate]: the melting point was 143 to 144 °C.

Consider `CCC(CC)(NC(=O)c1cnn2c1NC(c1ccccc1)CC2(C)C)c1cccc(C(F)(F)F)c1` (centres unmarked) [Example 434, N-(1-ethyl-1-(3-(trifluoromethyl)phenyl)propyl)-7,7-dimethyl-5-phenyl-4,5,6,7-tetrahydropyrazolo[1,5-a]pyrimidine-3-carboxamide], for which the melting point lay in the range of 166 to 167 °C.

`CCC(CC)(NC(=O)c1cnn2c1NC(c1ccccc1)CC2(C)C)c1ccc(-c2cccnc2)cc1` (centres unmarked) (as salt: HCl) [Example 583, N-(1-ethyl-1-(4-(3-pyridinyl)phenyl)propyl)-7,7-dimethyl-5-phenyl-4,5,6,7-tetrahydropyrazolo[1,5-a]pyrimidine-3-carboxamide]: the melting point was 168 to 169 °C.

Consider `O=C(NCc1ccc(Oc2ccc(F)cc2)cc1)c1cnn2c1NC(c1ccccc1)CC2C(F)(F)F` (centres unmarked) [Example 271, N-(4-(4-fluorophenoxy)benzyl)-5-phenyl-7-(trifluoromethyl)-4,5,6,7-tetrahydropyrazolo[1,5-a]pyrimidine-3-carboxamide], for which the melting point is 169 to 172 °C.

`CCC(CC)(NC(=O)c1c(C)nn2c1NC(c1ccccc1Cl)CC2(C)C)c1ccc(C)cc1` (centres unmarked) (as salt: HCl) [Example 968, 5-(2-chlorophenyl)-N-(1-ethyl-1-(4-methylphenyl)propyl)-2,7,7-trimethyl-4,5,6,7-tetrahydropyrazolo[1,5-a]pyrimidine-3-carboxamide] displayed a melting point of 173 to 174 °C.

The compound `CCC(CC)(NC(=O)c1c(C)nn2c1N[C@@H](c1ccccc1)CC2(C)C)c1ccc(Cl)cc1` (as salt: HCl) [Example 1043, (5R)-N-(1-(4-chlorophenyl)-1-ethylpropyl)-2,7,7-trimethyl-5-phenyl-4,5,6,7-tetrahydropyrazolo[1,5-a]pyrimidine-3-carboxamide] returned a melting point of 193 to 194 °C.

Take `CCC(CC)(NC(=O)c1c(C)nn2c1NC(c1ccccc1)CC2(C)C)c1ccc(C(C)O)cc1` (centres unmarked) [Example 978, N-(1-ethyl-1-(4-(1-hydroxyethyl)phenyl)propyl)-2,7,7-trimethyl-5-phenyl-4,5,6,7-tetrahydropyrazolo[1,5-a]pyrimidine-3-carboxamide]: the melting point was 165 to 166 °C.

For `CCCc1ccc(C(CC)(CC)NC(=O)c2cnn3c2NC(c2ccccc2)CC3(C)C)cc1` (centres unmarked) [Example 706, N-(1-ethyl-1-(4-propylphenyl)propyl)-7,7-dimethyl-5-phenyl-4,5,6,7-tetrahydropyrazolo[1,5-a]pyrimidine-3-carboxamide], the melting point lay in the range of 177 to 178 °C.

Compound `CCOC(=O)c1ccc(C(CC)(CC)NC(=O)c2c(C)nn3c2N[C@@H](c2ccccc2)CC3(C)C)cc1` (as salt: HCl) [Example 1074, (5R)-ethyl 4-(1-ethyl-1-(((2,7,7-trimethyl-5-phenyl-4,5,6,7-tetrahydropyrazolo[1,5-a]pyrimidin-3-yl)carbonyl)amino)propyl) benzoate] registered a melting point of 125 to 126 °C.

As to `CCC(CC)(NC(=O)c1cnn2c1NC(c1ccccc1)CC2(C)C)c1ccc(-c2ccoc2)cc1` (centres unmarked) [Example 585, N-(1-ethyl-1-(4-(3-furyl)phenyl)propyl)-7,7-dimethyl-5-phenyl-4,5,6,7-tetrahydropyrazolo[1,5-a]pyrimidine-3-carboxamide], the melting point is 185 to 186 °C.

Regarding `CCC(CC)(NC(=O)c1cnn2c1NC(c1ccccc1)CC2(C)C)C1CCCCC1` (centres unmarked) [Example 432, N-(1-cyclohexyl-1-ethylpropyl)-7,7-dimethyl-5-phenyl-4,5,6,7-tetrahydropyrazolo[1,5-a]pyrimidine-3-carboxamide], the melting point lay within 130 to 131 °C.

`CCC(CC)(NC(=O)c1cnn2c1NC(c1cccc(OC)n1)CC2(C)C)c1ccc(F)cc1` (centres unmarked) [Example 603, N-(1-ethyl-1-(4-fluorophenyl)propyl)-5-(6-methoxy-2-pyridinyl)-7,7-dimethyl-4,5,6,7-tetrahydropyrazolo[1,5-a]pyrimidine-3-carboxamide] gave a melting point of 156 to 157 °C.

The compound `CCC(CC)(Cc1ccc(OC)cc1)NC(=O)c1cnn2c1NC(c1ccccc1)CC2(C)C` (centres unmarked) [Example 704, N-(1-ethyl-1-(4-methoxybenzyl)propyl)-7,7-dimethyl-5-phenyl-4,5,6,7-tetrahydropyrazolo[1,5-a]pyrimidine-3-carboxamide] displayed a melting point of 185 to 186 °C.

With `CCC(CC)(NC(=O)c1cnn2c1N(Cc1ccccc1)C(c1ccccc1)CC2(C)C)c1ccc(C)cc1` (centres unmarked) [Example 765, 4-benzyl-N-(1-ethyl-1-(4-methylphenyl)propyl)-7,7-dimethyl-5-phenyl-4,5,6,7-tetrahydropyrazolo[1,5-a]pyrimidine-3-carboxamide], the melting point lay within 142 to 143 °C.

Compound `CCC(CC)(NC(=O)c1cnn2c1NC(c1ccccc1)CC2(CC)CC)c1ccc(C(F)(F)F)cc1` (centres unmarked) [Example 185, 7,7-diethyl-N-(1-ethyl-1-(4-(trifluoromethyl)phenyl)propyl)-5-phenyl-4,5,6,7-tetrahydropyrazolo[1,5-a]pyrimidine-3-carboxamide] came in with a melting point of 174 to 175 °C.

Compound `COc1ccccc1C1CC(C(F)(F)F)n2ncc(C(=O)O)c2N1` (centres unmarked) [Example 30, 5-(2-methoxyphenyl)-7-(trifluoromethyl)-4,5,6,7-tetrahydropyrazolo[1,5-a]pyrimidine-3-carboxylic acid] came in with a melting point of 189 to 190 °C.

In the case of `CCC(CC)(NC(=O)c1cnn2c1NC(c1ccc(F)cc1F)CC2(C)C)c1ccc(C(F)(F)F)cc1` (centres unmarked) [Example 694, 5-(2,4-difluorophenyl)-N-(1-ethyl-1-(4-(trifluoro-methyl)phenyl)propyl)-7,7-dimethyl-4,5,6,7-tetrahydropyrazolo[1,5-a]pyrimidine-3-carboxamide], the melting point lay in the range of 198 to 199 °C.

In the case of `CCC(C#N)NC(=O)c1cnn2c1N[C@H](c1ccccc1)C[C@@H]2C(F)(F)F` (stereo in doubt) [Example 284, N-(1-cyanopropyl)-5-phenyl-7-(trifluoromethyl)-4,5,6,7-tetrahydropyrazolo[1,5-a]pyrimidine-3-carboxamide], the melting point lay within 201 to 202 °C.

Compound `CCC(CC)(NC(=O)c1cnn2c1NC(c1ccccc1)CC2(C)C)c1ccc(C(=O)O)cc1` (centres unmarked) [Example 734, 4-(1-(((7,7-dimethyl-5-phenyl-4,5,6,7-tetrahydropyrazolo[1,5-a]pyrimidin-3-yl)carbonyl)amino)-1-ethylpropyl)benzoic acid] registered a melting point of 257 to 258 °C.

For orientation: melting point means the temperature of the solid-liquid transition.
